From patent US10406207B2, “Peptide conjugates of GLP-1 receptor agonists and gastrin and their use” (priority 2010, dated 2019)
Like-named read-outs stand apart in the source and are kept apart here.

Legend:
Format in all cases: cell-based
[1] = target: T1, mouse CCK-B R (Mus musculus, UniProt P56481); assay: Mouse CCK-B receptor efficacy assay (AlphaScreen SureFire p-ERK); settings: Table 1; HEK293 cells expressing mouse CCK-B R, p-ERK; read-out: mCCK-B R EC50
T1 construct: expressed in transfected cells
T1 sequence (P56481 1-453): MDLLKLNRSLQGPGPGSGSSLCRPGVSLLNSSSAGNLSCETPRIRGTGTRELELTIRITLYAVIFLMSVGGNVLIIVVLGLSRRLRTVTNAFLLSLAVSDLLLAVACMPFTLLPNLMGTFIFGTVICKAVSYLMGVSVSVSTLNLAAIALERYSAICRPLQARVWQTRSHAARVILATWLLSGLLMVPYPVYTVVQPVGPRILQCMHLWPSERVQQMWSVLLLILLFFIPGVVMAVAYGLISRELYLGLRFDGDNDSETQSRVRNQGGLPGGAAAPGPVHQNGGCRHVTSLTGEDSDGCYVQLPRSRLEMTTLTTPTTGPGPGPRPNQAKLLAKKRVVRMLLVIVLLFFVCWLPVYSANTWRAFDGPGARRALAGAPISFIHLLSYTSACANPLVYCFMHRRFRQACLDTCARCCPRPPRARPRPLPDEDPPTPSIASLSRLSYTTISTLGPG
Description: CCK-B Receptor (CCK-B R) Efficacy Assay:
To test binding and activation of CCK-B R we produced stable cell lines expressing one of the human or mouse CCK receptors in a manner similar to that for production of the hGLP-1 R cell lines were generated (vide supra). In brief, we used HEK293 cells for transfection of the cDNA for human or mouse CCK-A R or CCK-B R [hCCK-A R (gene identity: L19315), hCCK-B R (NM_176875), mCCK-A R (NM_009827) and mCCK-B R (NM_007627)] all cloned into the transfection plasmid pIRESneo2dNGFR. The cells were grown according to standard protocol in growth medium and transfected with the plasmids using Lipofectamin (Invitrogen). The cells stably expressing CCK receptors were selected using G418 in the growth medium (only cells that have taken up and incorporated the cDNA expression plasmid survive) and propagated. Stocks of cells were frozen for later use.
In vitro effects of peptide conjugates of the invention were estimated by measuring p-ERK (using the AlphaScreen™ SureFire p-ERK assay) in HEK293 cells stably expressing the human and mouse CCK-B R (high-affinity Gastrin receptor), respectively. The Gastrin receptor efficacy assays (AlphaScreen™ SureFire p-ERK assay) were performed as follows:
The CCK-B R expressing cells in question were seeded at 20,000 cells/well in 100 μl growth medium [DMEM, 10% FCS, Penicillin (100 IU/ml), Streptomycin (100 μg/ml)] in a 96-well plate coated with poly-D-lysine. The cells were incubated in an incubator (37° C., 5% […]) for two days.
The growth medium was changed to 80 μl of serum-free medium [DMEM, Penicillin (100 IU/ml), Streptomycin (100 μg/ml)] per well, and incubation of the cells was continued for 19 hours in the incubator (37° C., 5% CO2).
• 1. After 19 hours, 20 μl of serum-free medium containing one of 5 different concentrations of peptide conjugate was added (performed in triplicate for each concentration), and the cells were incubated for 5 min. at room temperature. • 2. The stimulation medium was discarded by quickly turning the plate upside down, and 60 μl 1× lysis buffer (from the SureFire assay kit) was added per well. • 3. The plate was shaken on a plate-shaker for 5 min and then placed on ice. • 4. SureFire P-ERK assay: 4 μl of each supernatant was transferred to a 384 well proxiplate (Perkin Elmer). • 5. 4 μl of each of the two control lysates (unstimulated and stimulated) were added to the proxiplate in duplicate. • 6. […] 7 μl of the latter reaction buffer+activation buffer+beads per well were added in the proxiplate, the mix being resuspended carefully before addition to the wells. • 7. The plate was incubated for 2 hours in a dark box in a 22° C. incubator. • 8. The plate was analyzed on an Envision™ light-emission plate reader (Perkin-Elmer) using the appropriate reading program (Perkin-Elmer).

[2] = target: T2, human CCK-B R (Homo sapiens, UniProt P32239); assay: Human CCK-B receptor efficacy assay (AlphaScreen SureFire p-ERK); settings: Table 1; HEK293 cells expressing human CCK-B R, p-ERK; read-out: hCCK-B R EC50
T2 construct: expressed in transfected cells
T2 sequence (P32239 1-447): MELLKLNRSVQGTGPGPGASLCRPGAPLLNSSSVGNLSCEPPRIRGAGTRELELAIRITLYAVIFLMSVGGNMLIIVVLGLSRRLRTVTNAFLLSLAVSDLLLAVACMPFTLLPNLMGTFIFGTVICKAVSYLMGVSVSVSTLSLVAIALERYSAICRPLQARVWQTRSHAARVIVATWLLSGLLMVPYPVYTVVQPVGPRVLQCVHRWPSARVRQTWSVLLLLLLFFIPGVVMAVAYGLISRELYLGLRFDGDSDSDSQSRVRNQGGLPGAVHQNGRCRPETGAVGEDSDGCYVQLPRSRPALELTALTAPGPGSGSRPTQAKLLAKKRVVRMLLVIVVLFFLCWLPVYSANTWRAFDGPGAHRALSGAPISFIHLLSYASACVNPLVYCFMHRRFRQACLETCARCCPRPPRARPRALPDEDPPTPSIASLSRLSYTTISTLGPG

[3] = target: T3, human GLP-1 R (Homo sapiens, UniProt P43220); assay: Human GLP-1 receptor efficacy assay (cAMP induction, FlashPlate); settings: read-out: hGLP-1 R EC50
T3 construct: expressed in transfected cells
Description: On the day of analysis, growth medium was removed and the cells were washed once with 200 μl Tyrode buffer [Tyrode's Salts (9.6 g/l), 10 mM HEPES, pH 7.4]. […] The reaction was stopped by addition of 25 μl 0.5 M HCl and incubated on ice for 60 min.

[4] = Table 1, HEK293 cells expressing human GLP-1 R, cAMP

T3 sequence (P43220 24-463): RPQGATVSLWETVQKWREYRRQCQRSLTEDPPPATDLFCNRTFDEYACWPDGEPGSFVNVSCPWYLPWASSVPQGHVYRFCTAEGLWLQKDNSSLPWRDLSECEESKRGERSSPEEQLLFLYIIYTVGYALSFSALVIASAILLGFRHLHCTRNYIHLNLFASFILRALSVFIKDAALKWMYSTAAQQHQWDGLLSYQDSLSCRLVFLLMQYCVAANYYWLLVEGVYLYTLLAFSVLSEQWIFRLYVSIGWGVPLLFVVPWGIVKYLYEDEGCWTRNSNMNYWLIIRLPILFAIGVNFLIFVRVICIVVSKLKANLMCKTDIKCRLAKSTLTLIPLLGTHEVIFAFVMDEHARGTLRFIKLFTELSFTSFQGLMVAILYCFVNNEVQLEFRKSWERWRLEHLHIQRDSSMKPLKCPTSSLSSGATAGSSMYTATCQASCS

EC50 [1] | EC50 [2] | EC50 [3, 4] | EC50 ([3]; Table 3) | Molecule
51.1 nM | 8.76 nM | – | – | CC[C@H](C)[C@H](NC(=O)[C@H](Cc1ccccc1)NC(=O)[C@H](CCC(=O)O)NC(=O)[C@H](CCCCN)NC(=O)[C@H](C)NC(=O)[C@H](C)NC(=O)[C@H](CCC(N)=O)NC(=O)CNC(=O)[C@H](CCC(=O)O)NC(=O)[C@H](CC(C)C)NC(=O)[C@H](Cc1ccc(O)cc1)NC(=O)[C@H](CO)NC(=O)[C@H](CO)NC(=O)[C@@H](NC(=O)[C@H](CC(=O)O)NC(=O)[C@H](CO)NC(=O)[C@@H](NC(=O)[C@H](Cc1ccccc1)NC(=O)[C@@H](NC(=O)CNC(=O)[C@H](CCC(=O)O)NC(=O)[C@H](C)NC(=O)[C@@H](N)Cc1c[nH]cn1)[C@@H](C)O)[C@@H](C)O)C(C)C)C(=O)N[C@@H](C)C(=O)N[C@@H](Cc1c[nH]c2ccccc12)C(=O)N[C@@H](CC(C)C)C(=O)N[C@H](C(=O)N[C@@H](CCCCN)C(=O)NCC(=O)N[C@@H](CCCNC(=N)N)C(=O)NCCOCCOCC(=O)N[C@@H](CO)C(=O)N[C@@H](CCCCN)C(=O)N[C@@H](CCCCN)C(=O)N[C@@H](CCC(N)=O)C(=O)NCC(=O)N1CCC[C@H]1C(=O)N[C@@H](Cc1c[nH]c2ccccc12)C(=O)N[C@@H](CC(C)C)C(=O)N[C@@H](CCC(=O)O)C(=O)N[C@@H](CCC(=O)O)C(=O)N[C@@H](CCC(=O)O)C(=O)N[C@@H](CCC(=O)O)C(=O)N[C@@H](CCC(=O)O)C(=O)N[C@@H](C)C(=O)N[C@@H](Cc1ccc(O)cc1)C(=O)NCC(=O)N[C@@H](Cc1c[nH]c2ccccc12)C(=O)N[C@@H](CC(C)C)C(=O)N[C@@H](CC(=O)O)C(=O)N[C@@H](Cc1ccccc1)C(N)=O)C(C)C [Compound 41, GLP-1(7-36)-Peg3-SKK-[Gln1,Leu15]Gastrin17]
114 nM | 77.3 nM | 0.0842 nM | 0.03 nM | H-HAEGTFTSDVSSYLEGQAAKEFIAWLVKGRKQGPWLEEEEEAYGWLDF-NH2 [Compound 38, GLP-1(7-36)-K-[Gln1,Leu15]Gastrin17]
71.4 nM | 12.8 nM | – | – | CC[C@H](C)[C@H](NC(=O)[C@H](Cc1ccccc1)NC(=O)[C@H](CCC(=O)O)NC(=O)[C@H](CCCCN)NC(=O)[C@H](C)NC(=O)[C@H](C)NC(=O)[C@H](CCC(N)=O)NC(=O)CNC(=O)[C@H](CCC(=O)O)NC(=O)[C@H](CC(C)C)NC(=O)[C@H](Cc1ccc(O)cc1)NC(=O)[C@H](CO)NC(=O)[C@H](CO)NC(=O)[C@@H](NC(=O)[C@H](CC(=O)O)NC(=O)[C@H](CO)NC(=O)[C@@H](NC(=O)[C@H](Cc1ccccc1)NC(=O)[C@@H](NC(=O)CNC(=O)[C@H](CCC(=O)O)NC(=O)[C@H](C)NC(=O)[C@@H](N)Cc1c[nH]cn1)[C@@H](C)O)[C@@H](C)O)C(C)C)C(=O)N[C@@H](C)C(=O)N[C@@H](Cc1c[nH]c2ccccc12)C(=O)N[C@@H](CC(C)C)C(=O)N[C@H](C(=O)N[C@@H](CCCCN)C(=O)NCC(=O)N[C@@H](CCCNC(=N)N)C(=O)NCCCCCCCC(=O)NCCCCCCCC(=O)N[C@@H](CCC(N)=O)C(=O)NCC(=O)N1CCC[C@H]1C(=O)N[C@@H](Cc1c[nH]c2ccccc12)C(=O)N[C@@H](CC(C)C)C(=O)N[C@@H](CCC(=O)O)C(=O)N[C@@H](CCC(=O)O)C(=O)N[C@@H](CCC(=O)O)C(=O)N[C@@H](CCC(=O)O)C(=O)N[C@@H](CCC(=O)O)C(=O)N[C@@H](C)C(=O)N[C@@H](Cc1ccc(O)cc1)C(=O)NCC(=O)N[C@@H](Cc1c[nH]c2ccccc12)C(=O)N[C@@H](CC(C)C)C(=O)N[C@@H](CC(=O)O)C(=O)N[C@@H](Cc1ccccc1)C(N)=O)C(C)C [Compound 45, GLP-1(7-36)-8Aoc-8Aoc-[Gln1,Leu15]Gastrin17]
73.1 nM | 25.9 nM | 0.145 nM | 0.03 nM | H-HAEGTFTSDVSSYLEGQAAKEFIAWLVKGRQGPWLEEEEEAYGWLDF-NH2 [Compound 37, GLP-1(7-36)-[Gln1,Leu15]Gastrin17]
58.6 nM | 15.6 nM | 0.116 nM | 0.031 nM | H-HAEGTFTSDVSSYLEGQAAKEFIAWLVKGRSKKQGPWLEEEEEAYGWLDF-NH2 [Compound 40, GLP-1(7-36)-SKK-[Gln1,Leu15]Gastrin17]
82.5 nM | 51.9 nM | – | – | CC[C@H](C)[C@H](NC(=O)[C@H](Cc1ccccc1)NC(=O)[C@H](CCC(=O)O)NC(=O)[C@H](CCCCN)NC(=O)[C@H](C)NC(=O)[C@H](C)NC(=O)[C@H](CCC(N)=O)NC(=O)CNC(=O)[C@H](CCC(=O)O)NC(=O)[C@H](CC(C)C)NC(=O)[C@H](Cc1ccc(O)cc1)NC(=O)[C@H](CO)NC(=O)[C@H](CO)NC(=O)[C@@H](NC(=O)[C@H](CC(=O)O)NC(=O)[C@H](CO)NC(=O)[C@@H](NC(=O)[C@H](Cc1ccccc1)NC(=O)[C@@H](NC(=O)CNC(=O)[C@H](CCC(=O)O)NC(=O)[C@H](C)NC(=O)[C@@H](N)Cc1c[nH]cn1)[C@@H](C)O)[C@@H](C)O)C(C)C)C(=O)N[C@@H](C)C(=O)N[C@@H](Cc1c[nH]c2ccccc12)C(=O)N[C@@H](CC(C)C)C(=O)N[C@H](C(=O)N[C@@H](CCCCN)C(=O)NCC(=O)N[C@@H](CCCNC(=N)N)C(=O)NCCCCCCCC(=O)N[C@@H](CO)C(=O)N[C@@H](CCCCN)C(=O)N[C@@H](CCCCN)C(=O)N[C@@H](CCC(N)=O)C(=O)NCC(=O)N1CCC[C@H]1C(=O)N[C@@H](Cc1c[nH]c2ccccc12)C(=O)N[C@@H](CC(C)C)C(=O)N[C@@H](CCC(=O)O)C(=O)N[C@@H](CCC(=O)O)C(=O)N[C@@H](CCC(=O)O)C(=O)N[C@@H](CCC(=O)O)C(=O)N[C@@H](CCC(=O)O)C(=O)N[C@@H](C)C(=O)N[C@@H](Cc1ccc(O)cc1)C(=O)NCC(=O)N[C@@H](Cc1c[nH]c2ccccc12)C(=O)N[C@@H](CC(C)C)C(=O)N[C@@H](CC(=O)O)C(=O)N[C@@H](Cc1ccccc1)C(N)=O)C(C)C [Compound 43, GLP-1(7-36)-8Aoc-SKK-[Gln1,Leu15]Gastrin17]
54.1 nM | 18.8 nM | 0.114 nM | 0.034 nM | H-HAEGTFTSDVSSYLEGQAAKEFIAWLVKGRAAAQGPWLEEEEEAYGWLDF-NH2 [Compound 39, GLP-1(7-36)-AAA-[Gln1,Leu15]Gastrin17]
